The conditions of data set [1]: cited from earlier work.
Data set [2] has as its system DSS-induced colitis mice. The data set can be described thus: DSS-induced colitis in mice (DSS 2.5% in drinking water). Format: in vivo. The note with it: 8 mg DMOG every second day. The protocol: Colitis was induced in mice using DSS 2.5% in drinking water. DMOG mini-capsules of example 20 with two different coating were used, namely DSS-bead (0.25 mg—immediate release), and DSS-COAT-bead (DSS-COAT beads coated with 22% Surelease®—DMOG: 0.25 mg/day) and were compared to non-treated DSS-induced colitis mice and mice treated with 8 mg DMOG IP every second day. The minicapsules were prepared using the method described in Example 20 above.
As DMOG is known to increase the production of erythropoietin it is expected that in the presence of systemic DMOG that the packed cell volume would be increased. The packed cell volume (PCV) is a measurement of the proportion of blood that is made up of cells. The value is expressed as a percentage or fraction of cells in blood. The PCV rises when the number of red blood cells increases. […] Thus, it could be concluded that when administered within the intestinal or colonic lumen that it acts locally at low dose and negligible concentrations are systemically available.
Referring to FIG. 21, the disease activity index (DAI) is calculated as the sum of scores of weight loss, stool consistency and blood in feces. […] The minicapsules were prepared using the method described in Example 20 above.
A major symptom of DSS-induced colitis is weight loss. […] Likewise, when 0.25 mg DMOG is administered daily as colon-specific beads (DSS-COAT beads coated with 22% Surelease®—DMOG: 0.25 mg/day), the protective effect is pronounced. […] The minicapsules were prepared using the method described in Example 20 above.

In data set [3] the test system is antigen specific IgA and IgG. The data set can be described thus: Antigen specific IgA and IgG in intestinal washes by ELISA after immunisation of mice. The note with it: intestinal washes one week after booster. It counts as in vivo. The protocol: FIG. 9 represents the immune response in mice immunised with minicapsules as described in Example 5 and Example 6. […] Mice were immunised on 3 consecutive days on week 0 followed by an identical series of booster immunisations at week 2. Intestinal washes were collected one week following the booster and antigen specific IgA and IgG was assessed by ELISA.

Read-outs that look alike come from different tables or passages of the source.

Results on three molecules are retold here after US9844513B2, “Oral pharmaceutical composition” (Sigmoid Pharma Limited, priority 2007, dated 2017).

Usually half-life stands for the time in which the quantity being followed falls by half. Turning to `COc1ccccc1OCCNCC(O)COc1cccc2[nH]c3ccccc3c12` (centres unmarked) [Carvedilol], in data set [1] (absorbed from the small intestine), the “time to reach maximum plasma concentration” value is on record as “within two hours”. Also, the relative absorption is reported as roughly 7% in data set [1] (colon), roughly 28% in data set [1] (ileum) and “approximately 56%” in data set [1] (jejunum). In addition, the absolute bioavailability entry in data set [1] (extensive first-pass metabolism) is “approximately 25%”. Further, in data set [1] (in vivo), the half-life was 7 to 10 h.

Turning to `COC(=O)CNC(=O)C(=O)OC` [DMOG, dimethyloxalglycine], in data set [2] (Day 7, IP), the “colon length (colon shortening)” value is “significantly reduced colon shortening” and the “packed cell volume (PCV)” value was “increases the PCV”. In addition, the “protective effect (weight loss) compared with non-treated DSS mice” value in data set [2] (IP) is recorded as “significant protective effect”. In data set [2] (IP, 7 days), the “Disease Activity Index (DAI)” value is “high DAI”.

B1: OVA in solution: Ovalbumin antigen given in solution, comparison group (protein, UniProt P01012 2-386, looked up)
Ovalbumin: GSIGAASMEFCFDVFKELKVHHANENIFYCPIAIMSALAMVYLGAKDSTRTQINKVVRFDKLPGFGDSIEAQCGTSVNVHSSLRDILNQITKPNDVYSFSLASRLYAEERYPILPEYLQCVKELYRGGLEPINFQTAADQARELINSWVESQTNGIIRNVLQPSSVDSQTAMVLVNAIVFKGLWEKAFKDEDTQAMPFRVTEQESKPVQMMYQIGLFRVASMASEKMKILELPFASGTMSMLVLLPDEVSGLEQLESIINFEKLTEWTSSNVMEERKIKVYLPRMKMEEKYNLTSVLMAMGITDVFSSSANLSGISSAESLKISQAVHAAHAEINEAGREVVGSAEAGVDAASVSEEFRADHPFLFCIKHIATNAVLFFGRCVSP
Regarding B1, in data set [3], the “titres of antigen specific IgG in the intestinal washes” value is recorded as “highest responses”.
